Reference: publication PMC12695667 (Nature, 2025)
Where “and” joins values, the source holds several entries; their conditions need not be identical. Equal values may be shown once.

Assays:
HaCat spheroids = assay: Penetration in 3D-cultured multilayer HaCat spheroids (with or without endocytosis/exocytosis inhibitors); format: cell-based, human; details: FITC-eq 1 μg ml^−1, 12 h
Method: Multilayer cell spheroids were prepared using the hanging-drop method. […] The cell suspensions (25 μl) were dropped onto the lids of the cell culture plate to form uniform droplets, and 20 ml PBS was added to the plate to keep the droplets moist. The cells were incubated for 72 h and formed dense spheroids, which were transferred to an agarose-coated (1% (w/v) in PBS) 96-well plate with one spheroid per well and incubated for another 72 h to mature. […] The spheroids were washed with PBS and imaged using CLSM by z-stack tomoscan at 20 μm intervals from the bottom to the middle of the spheroids. The integration of FITC fluorescence density and linescan analysis were performed using Image J.
The HaCat spheroids were imaged and analysed as described above.
Spheroids were pre-treated with the indicated inhibitors for 4 h, followed by incubation with
The images are representative of n = 3 independent
experiments. b, Line-scan analysis of FITC fluorescence along a randomly selected line (yellow
(1 picture or pasted object on this page, not shown here)

[1] = system: STZ-induced diabetic minipigs; assay: Blood glucose levels in STZ-induced diabetic minipigs (CGMS); format: in vivo, Guangxi Bama minipigs; details: cream, 29 U kg^−1
Method: Guangxi Bama minipigs (aged 6 months; weight, 35–40 kg) were infused with STZ in freshly prepared disodium citrate buffer (75 mg ml^−1, pH 4.5) at a 150 mg per kg dose within 10 min and then maintained for recovery. The glucose levels were monitored using CGMS[15] (Dexcom G4 Platinum Continuous Glucose Monitor System, Dexcom). A BGL that is constantly higher than 250 mg dl^−1 indicates the successful establishment of the insulin-deficient diabetic minipig model.
The cream was topically applied onto the minipig abdominal skin at an insulin-equivalent dose of 40 mg or 10 mg (n = 3 for each group). The area with the cream was wrapped with plastic film. The BGLs of minipigs were continuously monitored using the CGMS. The diabetic minipigs were subjected to a fasting period of 12 h during the experimental procedures.

[2] = system: STZ-induced diabetic mice; assay: Intraperitoneal glucose tolerance test (IPGTT) in diabetic mice; format: in vivo, C57BL/6J mice; design: Area under the IPGTT blood glucose curve: unit not given here; details: for Area under the IPGTT blood glucose curve: Fig. 3h, 0-120 min; for BGL after intraperitoneal glucose administration (IPGTT): diabetic mice, topical 116 U kg^−1, glucose 1.5 g per kg i.p., hyperglycaemic state maintained
Method: BGLs were monitored over time. The diabetic mice were subjected to a fasting period of 3 h during the experimental procedures.

[3] = system: STZ-induced type 1 diabetic mice; assay: Blood glucose levels in STZ-induced diabetic mice; format: in vivo, C57BL/6J mice; details: for Effect on BGLs, topical: topical 116 U kg^−1, 1.13 cm^2 dorsal skin
Method: Type 1 diabetic mice were established through intraperitoneal delivery of STZ (150 mg per kg in 10 mg ml^−1 disodium citrate buffer, pH 4.5) into healthy male C57BL/6J mice (aged 6–8 weeks, ~25 g). BGLs were monitored, and the mice with BGLs exceeding 300 mg dl^−1 were considered diabetic. Diabetic mice with fasting BGLs within the 300 to 600 mg dl^−1 range were selected for the experiments. BGLs were measured from tail-vein blood (around 3 μl) using a calibrated Sinocare glucose meter.
BGLs were measured at timed intervals. […] The diabetic mice were subjected to a fasting period of 12 h during the experimental procedures.

[4] = biological target: insulin receptor extracellular domains, His-tagged; assay: SPR; Biacore X100, CM5 chip; anti-His antibody immobilised, His-tag-ECD-IR captured on it; insulin (9.75-156 nM) or OP-I (4.06-65.0 nM) injected in HEPES running buffer pH 7.4, single-cycle kinetics, 180 s binding and 300 s dissociation, flow 30 ul/min
[5] = system: phosphorylated AKT-Thr308; assay: Western blotting for insulin signalling, pAKT/AKT in skeletal muscle; format: in vivo, mouse; details: STZ-diabetic mice, 1 h after s.c. 5 U/kg, individual mice, n = 3
Method: (§1) The mice were euthanized, and their skeletal muscle tissues were collected at 1 h after subcutaneous injection or 4 h after topical administration. Muscle samples were weighed and lysed in radioimmunoprecipitation buffer (Sigma-Aldrich) containing protease and phosphatase inhibitors (Thermo Fisher Scientific) and incubated on ice for 30 min. The lysates were centrifuged at 20,000g for 20 min at 4 °C and quantified using the BCA protein assay. […] The membranes were blocked in Tris-buffered saline with 0.5% Tween-20 (TBST) and 5% BSA for 1 h, followed by overnight incubation at 4 °C with primary antibodies against phosphorylated IRβ/IGF1Rβ (1:1,000), phosphorylated AKT-Thr308 (1:1,000) or GAPDH (1:5,000). After washing three times with TBST, the membranes were incubated with horseradish-peroxidase-conjugated secondary antibodies (HRP-labelled goat anti-rabbit IgG (H+L) or HRP-labelled Goat Anti-Mouse IgG (H+L)) at a dilution of 1:1,000 at room temperature for 1 h. Signal detection was performed using Immobilon Forte chemiluminescence substrate on the ChemiScope 3600 Mini Imaging System (Clinx Science Instruments). […]
(§2) control. The blots are representative of n = 3 independent experiments . b, Quantification of pIR and pAKT levels. […]

[6] = system: phosphorylated IRβ/IGF1Rβ; assay: Western blotting for insulin signalling, pIR/IR in skeletal muscle; format: in vivo, mouse; details: STZ-diabetic mice, 1 h after s.c. 5 U/kg, western blot, individual mice, n = 3
Method: as §1, §2

[7] = system: C57BL/6J mouse dorsal skin; format: in vivo, C57BL/6J mice
Text: The dorsal skin of male C57BL/6J mice was exposed using depilatory cream and cleaned using PBS. A diffusing cell of 1.13 cm^2 was attached onto the dorsal skin. […] After timed topical administration, the mice were euthanized. The treated skin sites were washed and dissected. The entire skin samples were carefully washed three times with PBS, fixed with 4% paraformaldehyde (PFA) solution and sectioned into 10-μm-thick slices using a cryostat (UV800, Leica Microsystems). 4′,6-Diamidino-2′-phenylindole (DAPI) was used to stain and label the nuclei of skin tissues, and BODIPY was used to stain and localize subcutaneous fat deposits. […] The CLSM images were analysed using ImageJ.

Row | Molecule | Fluorescence of HaCat spheroids (CLSM) (HaCat spheroids) | Effect of topical treatment on minipig BGLs [1] | Area under the IPGTT blood glucose curve ([2]; replicate 1) | Area under the IPGTT blood glucose curve ([2]; replicate 2) | Area under the IPGTT blood glucose curve ([2]; replicate 3) | Area under the IPGTT blood glucose curve ([2]; replicate 4) | Area under the IPGTT blood glucose curve ([2]; replicate 5) | BGL after intraperitoneal glucose administration (IPGTT) [2] | Effect on BGLs, topical [3] | other results
1 | insulin^FITC: FITC-labelled insulin | only weak fluorescence |  |  |  |  |  |  |  |  | 
2 | PEG–I: PEGylated insulin, PEG molecular mass of 5 kDa, used as a control |  | almost no obvious changes in minipig BGLs | 63110 | 52617 | 56133 | 51381 | 44798 | around 600 mg dl^−1 | negligible effect on BGLs | 
3 | OP-conjugated insulin (insulin conjugated to poly[2-(N-oxide-N,N-dimethylamino)ethyl methacrylate]) |  |  |  |  |  |  |  |  |  | koff [4]: 0.0053 s⁻¹; kon [4]: 204000 M⁻¹ s⁻¹
4 | PEG–I^FITC: FITC-labelled PEG–I | only weak fluorescence |  |  |  |  |  |  |  |  | 
5 | insulin: Human recombinant insulin (29 U mg^−1, I8830, Solarbio) [reference compound] |  | almost no obvious changes in minipig BGLs | 55359 | 62309 | 59228 | 59472 | 58535 | around 600 mg dl^−1 | negligible effect on BGLs | pAKT/AKT [5]: 0.4051 and 0.6287 and 0.4302; PIR/IR [6]: 0.1659 and 0.2361 and 0.221; BGL after rebound within 4 h ([3]; s.c. 5 U kg^−1): around 400 mg dl^−1; BGL reached within 1 h ([3]; s.c. 5 U kg^−1, from around 400): ~100 mg/dL
6 | CCN1/C(=C/C=C/C=C/C2=[N+](CCCCCC(=O)O)c3ccc(S(=O)(=O)O)cc3C2(C)C)C(C)(C)c2cc(S(=O)(=O)[O-])ccc21 [free Cy5] |  |  |  |  |  |  |  |  |  | Transdermal permeability of free label [7]: no detectable transdermal permeability
